Reference: PMC7672604, “Design, Synthesis, Molecular Docking, Antiapoptotic and Caspase-3 Inhibition of New 1,2,3-Triazole/Bis-2(1H)-Quinolinone Hybrids” (Molecules, 2020)
“And” between values parts separate entries of the source, which are not always exact repeats. Equal entries are not always repeated. Blank lines part the entries; values can stand above or below the compound they belong to.

Assays:
cytochrome C = test: Cytochrome C ELISA in SR human cell line; assay type: cell-based
Protocol: The 1,2,3-triazole/biquinolinone derivative 6c was evaluated for cytochrome C against the SR human cell line and the results are listed in Table 4.
Cells were collected from American Type Culture Collection to be grown in […] containing 10% fetal bovine serum at 37 °C, stimulated with the compounds to be tested for cytochrome C using Cytochrome C Human ELISA Kit (ab119521—Cytochrome C Human ELISA Kit, Vaccera institute, Egypt) (See Supplementary Materials). […]
• Equilibrate all materials and prepared reagents to room temperature prior to use.
• It is recommended to assay all standards, controls and samples in duplicate.
13.1. Prepare all reagents, working standards, and samples as directed in the previous sections.
Determine the number of microplate strips required to test the desired number of samples plus […]
appropriate number of wells needed for running blanks and standards. Predilute samples before […]
starting the test procedure with one-part sample to one-part 1X Assay Buffer.
13.2. Wash the microplate twice with approximately 400 μL 1X Wash Buffer per well with […]
thorough aspiration of microplate contents between washes. Allow the 1X Wash Buffer to remain in […]
Note: The color development on the plate should be monitored and the substrate reaction stopped […]
the stop solution when the highest standard has developed a dark blue color. Alternatively, the color development can be monitored by the ELISA reader at 620 nm. […]
Note: It is important that the Stop Solution is mixed quickly and uniformly throughout the microplate to completely inactivate the enzyme. Results must be read immediately after the Stop Solution is added or within one hour if the microplate strips are stored at 2 - 8°C in the dark.
13.15. Read absorbance of each microplate on a spectrophotometer using 450 nm as the primary wavelength (optionally 620 nm as the reference wavelength; 610 nm to 650 nm is acceptable).
Blank the plate reader according to the manufacturer's instructions by using the blank wells.
Determine the absorbance of both the samples and the standards. […]

testis of I/R rats = test: Testicular histopathology (H&E, Cosentino's score, Johnson's scoring) in I/R rats; assay type: in vivo; conditions: for Histopathological/spermatogenesis scoring difference compared to the reference (NAC): Cosentino's score and Johnson's scoring, p-value < 0.005; for Histopathological finding in testis sections: H&E sections
Source text: Also, it decreased spermatogenesis when compared to the control group by using Johnson’s scoring system (Figure 9B).
The seminiferous tubules were seen lined with stratified testicular epithelium rested on basement membranes. […] Ruptured tubules and distorted Leydig cells and sloughed cells could be also observed (Figure 10B). […] Distorted Leydig cells with dilated blood vessels (BV) were frequently seen among the sections (Figure 12). […] Dilated blood vessels and the presence of amyloid substance were also found (Figure 13).
Multiple testicular specimens were stained by hematoxylin-eosin (ab245880, Abcam, Cambridge, MA, USA) using Cosentino’s score for semi-quantitation of pathological changes in different seminiferous tubules. By using Johnson’s scoring system, the effect of ischemia on the spermatogenesis can be studied (See Supporting Materials).
Semi-quantitative data were measured and counted per section in ten randomly selected non-overlapping fields using power × 400 magnifications of the sections from each rat. The results were carried out using the Image J program analysis software (Image J 1.48V, Maryland, MD, USA; Wayne Rasb and National Institutes of Health). […]
4. Histopathological Investigation
Multiple testicular specimens were fixed in Bouin's solution for about 24 hour, dehydrated in an alcohol grades, cleaned with xylene and then embedded in paraffin wax. Tissue sections (about six μm) were stained by haematoxylin–eosin (H&E) and were studied by an experienced histologist. In the current study, we used Cosentino's score for semi-quantitation of pathological changes on different seminiferous tubules in the whole groups by grading these tubules between one and four, and the mean scores were taken by dividing the totality to the whole number of testicular tubules .
By using Johnson’s scoring system, the effect of ischemia on the spermatogenesis can be studied.
The grades were counted one to ten, and the total scores were taken by dividing the totality to the whole number of testicular tubules.
4.2.Histopathological grading score (Cosentino's score)
I Normal testicular structure
II less orderly germinal cells with closely packed seminiferous tubules III Anarchic sloughed germinal cells, with less pyknotic nuclei size and less distinct seminiferous […]
IV Closely packed seminiferous tubules and coagulative necrosis
Note: Semi-quantitation of pathological changes on different seminiferous tubules in the whole groups by grading the tubules between 1 and 4, and the mean scores were obtained by dividing the totality to the whole number of testicular tubules.
4.3.Spermatogenesis grading; Score Morphological picture
10 Normal spermatogenesis
9 less defect in spermatogenesis with multiple late spermatids, little disorganized epithelium 8 Less than five spermatozoa/tubule, less late spermatids
7 Absence of spermatozoa, absent late spermatids, more early spermatids 6 No spermatozoa, absence of late spermatids with little early spermatids 5 No spermatozoa or spermatids, more spermatocytes
4 No spermatozoa or spermatids, fewer spermatocytes
2 No germinal cells, only Sertoli cells
1 No seminiferous epithelium
Note: By using Johnsen's scoring system, the effect of ischaemia on the spermatogenesis can be detected. The grades were from 1 to 10, and the total scores were taken by dividing to the whole number of testicular tubules.

SMILES: Cn1c(=O)cc(-n2cc(COc3cc(=O)[nH]c4ccccc34)nn2)c2ccccc21 [6d, 1-Methyl-4-(4-(((2-oxo-1,2-dihydroquinolin-4-yl)oxy)methyl)-1H-1,2,3-triazol-1-yl)quinolin-2(1H)-one]
- Histopathological/spermatogenesis scoring difference compared to the reference (NAC) (testis of I/R rats): highly significant histopathological difference
- Histopathological finding in testis sections (testis of I/R rats): ruptured seminiferous tubules with distorted Leydig cells
- melting point: 285 to 287 °C

SMILES: Cc1ccc2[nH]c(=O)cc(OCc3cn(-c4cc(=O)[nH]c5ccc(C)cc45)nn3)c2c1 [6f, 6-Methyl-4-((1-(6-methyl-2-oxo-1,2-dihydroquinolin-4-yl)-1H-1,2,3-triazol-4-yl)meth-oxy)quinolin-2(1H)-one]
- Histopathological/spermatogenesis scoring difference compared to the reference (NAC) (testis of I/R rats): highly significant histopathological difference
- Histopathological finding in testis sections (testis of I/R rats): ruptured seminiferous tubules with distorted Leydig cells
- melting point: 270 to 272 °C

SMILES: CC(=O)N[C@@H](CS)C(=O)O [NAC, N-acetylcysteine, reference compound]
- Cyt C Conc (cytochrome C): 0.24 ± 0.019 ng/mL
- Cyt C Fold Change (cytochrome C; down-expression relative to control): 4.13 fold
- Histopathological finding in testis sections (testis of I/R rats): more or less normal seminiferous tubules and Leydig cells except some areas displayed distorted tubules and widening of inter-tubular spaces

Second part, led by results:

- melting point: 295 to 297 °C
SMILES: COc1ccc2[nH]c(=O)cc(-n3cc(COc4cc(=O)[nH]c5ccccc45)nn3)c2c1 [6c, 6-Methoxy-4-(4-(((2-oxo-1,2-dihydroquinolin-4-yl)oxy)methyl)-1H-1,2,3-triazol-1-yl)-quinolin-2(1H)-one]
- Cyt C Conc (cytochrome C): 0.28 ng/mL and 0.28 ± 0.011 ng/mL

- melting point: 272 to 274 °C
SMILES: Cc1ccc2[nH]c(=O)cc(OCc3cn(-c4cc(=O)[nH]c5ccccc45)nn3)c2c1 [6e, 6-Methyl-4-((1-(2-oxo-1,2-dihydroquinolin-4-yl)-1H-1,2,3-triazol-4-yl)methoxy)quinolin-2(1H)-one]
- Histopathological/spermatogenesis scoring difference compared to the reference (NAC) (testis of I/R rats): weak significant differences
- Histopathological finding in testis sections (testis of I/R rats): dilated seminiferous tubules

- melting point: 300 to 302 °C
SMILES: COc1ccc2[nH]c(=O)cc(OCc3cn(-c4cc(=O)[nH]c5ccccc45)nn3)c2c1 [6g, 6-Methoxy-4-((1-(2-oxo-1,2-dihydroquinolin-4-yl)-1H-1,2,3-triazol-4-yl)methoxy)quinolin-2-(1H)-one]
- Histopathological/spermatogenesis scoring difference compared to the reference (NAC) (testis of I/R rats): weak significant differences
- Histopathological finding in testis sections (testis of I/R rats): dilated seminiferous tubules
